ChEMBL document CHEMBL3826948, “Alkyl substituted aminal derivatives of HCV NS5A inhibitor MK-8742” (Bioorg Med Chem Lett, 2016)

Tests used:
Details in all cases: Hepatitis C virus
[1] = Inhibition of NS5A in HCV genotype 2b assessed as replicon RNA levels by real time PCR based cell based assay; set-up: species or system Hepatitis C virus subtype 2b
[2] = Inhibition of NS5A in HCV genotype 3a assessed as replicon RNA levels by real time PCR based cell based assay; set-up: species or system Hepatitis C virus subtype 3a
[3] = Inhibition of NS5A in HCV genotype 1a assessed as replicon RNA levels by real time PCR based cell based assay; set-up: species or system Hepatitis C virus subtype 1a
[4] = Inhibition of NS5A in HCV genotype 1b assessed as replicon RNA levels by real time PCR based cell based assay; set-up: species or system Hepatitis C virus subtype 1b
[5] = Inhibition of NS5A in HCV genotype 4a assessed as replicon RNA levels by real time PCR based cell based assay; set-up: species or system Hepatitis C virus subtype 4a
[6] = Inhibition of NS5A in HCV genotype 2a assessed as replicon RNA levels by real time PCR based cell based assay; set-up: species or system Hepatitis C virus subtype 2a

COC(=O)N[C@H](C(=O)N1CCC[C@H]1c1ncc(-c2cc(F)c3c(c2)OC(C2CC2C#N)n2c-3cc3cc(-c4cnc([C@@H]5CCCN5C(=O)[C@@H](NC(=O)OC)C(C)C)[nH]4)ccc32)[nH]1)C(C)C (stereo partly drawn)
EC50 [1]: 8 nM | EC50 [2]: 0.06 nM | EC50 [3]: 0.005 nM

COC(=O)N[C@H](C(=O)N1CCC[C@H]1c1ncc(-c2cc(F)c3c(c2)OC(C2CC2C(=O)O)n2c-3cc3cc(-c4cnc([C@@H]5CCCN5C(=O)[C@@H](NC(=O)OC)C(C)C)[nH]4)ccc32)[nH]1)C(C)C (stereo partly drawn)
EC50 [1]: 525 nM | EC50 [2]: 202 nM | EC50 [3]: 8 nM

COC(=O)N[C@H](C(=O)N1CCC[C@H]1c1ncc(-c2ccc3c(c2)OC(CC(C)(C)C)n2c-3cc3cc(-c4cnc([C@@H]5CCCN5C(=O)[C@@H](NC(=O)OC)C(C)C)[nH]4)ccc32)[nH]1)C(C)C (stereo partly drawn)
EC50 [1]: 73 nM | EC50 [4]: 0.002 nM | EC50 [2]: 7 nM | EC50 [5]: 0.02 nM | EC50 [6]: 1 nM | EC50 [3]: 0.004 nM

CNC(=O)C1CC1C1Oc2cc(-c3cnc([C@@H]4CCCN4C(=O)[C@@H](NC(=O)OC)C(C)C)[nH]3)cc(F)c2-c2cc3cc(-c4cnc([C@@H]5CCCN5C(=O)[C@@H](NC(=O)OC)C(C)C)[nH]4)ccc3n21 (stereo partly drawn)
EC50 [1]: 52 nM | EC50 [2]: 10 nM | EC50 [3]: 1 nM

COC(=O)N[C@H](C(=O)N1CCC[C@H]1c1ncc(-c2ccc3c(c2)cc2n3C3(CCC3)Oc3cc(-c4cnc([C@@H]5C[C@@H](F)CN5C(=O)[C@@H](NC(=O)OC)C(C)C)[nH]4)cc(F)c3-2)[nH]1)C(C)C
EC50 [1]: 44 nM | EC50 [4]: 0.0005 nM | EC50 [2]: 0.6 nM | EC50 [5]: 0.04 nM | EC50 [6]: 0.03 nM | EC50 [3]: 0.002 nM

CCCCCCC1Oc2cc(-c3cnc([C@@H]4CCCN4C(=O)[C@@H](NC(=O)OC)C(C)C)[nH]3)ccc2-c2cc3cc(-c4cnc([C@@H]5CCCN5C(=O)[C@@H](NC(=O)OC)C(C)C)[nH]4)ccc3n21 (stereo partly drawn)
EC50 [1]: 12 nM | EC50 [4]: 0.001 nM | EC50 [2]: 0.2 nM | EC50 [5]: 0.02 nM | EC50 [6]: 0.01 nM | EC50 [3]: 0.001 nM

COC(=O)N[C@H](C(=O)N1CCC[C@H]1c1ncc(-c2ccc3c(c2)OC(C2CCCC2)n2c-3cc3cc(-c4cnc([C@@H]5CCCN5C(=O)[C@@H](NC(=O)OC)C(C)C)[nH]4)ccc32)[nH]1)C(C)C (stereo partly drawn)
EC50 [1]: 2 nM | EC50 [4]: 0.003 nM | EC50 [2]: 0.3 nM | EC50 [5]: 0.005 nM | EC50 [6]: 0.07 nM | EC50 [3]: 0.002 nM

COC(=O)N[C@H](C(=O)N1CCC[C@H]1c1ncc(-c2ccc3c(c2)OC(C2CCC4(CC2)CC4)n2c-3cc3cc(-c4cnc([C@@H]5CCCN5C(=O)[C@@H](NC(=O)OC)C(C)C)[nH]4)ccc32)[nH]1)C(C)C (stereo partly drawn)
EC50 [1]: 2 nM | EC50 [4]: 0.02 nM | EC50 [2]: 0.6 nM | EC50 [5]: < 0.2 nM | EC50 [6]: < 0.2 nM | EC50 [3]: < 0.02 nM

CCCC1Oc2cc(-c3cnc([C@@H]4CCCN4C(=O)[C@@H](NC(=O)OC)C(C)C)[nH]3)ccc2-c2cc3cc(-c4cnc([C@@H]5CCCN5C(=O)[C@@H](NC(=O)OC)C(C)C)[nH]4)ccc3n21 (stereo partly drawn)
EC50 [1]: 3 nM | EC50 [4]: 0.002 nM | EC50 [2]: 0.3 nM | EC50 [5]: 0.02 nM | EC50 [6]: 0.003 nM | EC50 [3]: 0.003 nM

COC(=O)N[C@H](C(=O)N1CCC[C@H]1c1ncc(-c2cc(F)c3c(c2)OC(C2CC24CCCC4)n2c-3cc3cc(-c4cnc([C@@H]5CCCN5C(=O)[C@@H](NC(=O)OC)C(C)C)[nH]4)ccc32)[nH]1)C(C)C (stereo partly drawn)
EC50 [1]: > 17 nM | EC50 [2]: > 17 nM | EC50 [3]: 0.006 nM

COC(=O)N[C@H](C(=O)N1CCC[C@H]1c1ncc(-c2cc(F)c3c(c2)OC(C2CC2C(=O)N(C)C)n2c-3cc3cc(-c4cnc([C@@H]5CCCN5C(=O)[C@@H](NC(=O)OC)C(C)C)[nH]4)ccc32)[nH]1)C(C)C (stereo partly drawn)
EC50 [1]: 9 nM | EC50 [2]: 4 nM | EC50 [3]: 0.1 nM

COC(=O)N[C@H](C(=O)N1CCC[C@H]1c1ncc(-c2cc(F)c3c(c2)OC(C2CC2C)n2c-3cc3cc(-c4cnc([C@@H]5CCCN5C(=O)[C@@H](NC(=O)OC)C(C)C)[nH]4)ccc32)[nH]1)C(C)C (stereo partly drawn)
EC50 [1]: 2 nM | EC50 [2]: 0.09 nM | EC50 [3]: 0.006 nM

COC(=O)N[C@H](C(=O)N1CCC[C@H]1c1ncc(-c2ccc3c(c2)OC(C(C)C)n2c-3cc3cc(-c4cnc([C@@H]5CCCN5C(=O)[C@@H](NC(=O)OC)C(C)C)[nH]4)ccc32)[nH]1)C(C)C (stereo partly drawn)
EC50 [1]: 6 nM | EC50 [4]: 0.002 nM | EC50 [2]: 0.8 nM | EC50 [5]: 0.02 nM | EC50 [6]: 0.01 nM | EC50 [3]: 0.002 nM

COCC1CC1C1Oc2cc(-c3cnc([C@@H]4CCCN4C(=O)[C@@H](NC(=O)OC)C(C)C)[nH]3)cc(F)c2-c2cc3cc(-c4cnc([C@@H]5CCCN5C(=O)[C@@H](NC(=O)OC)C(C)C)[nH]4)ccc3n21 (stereo partly drawn)
EC50 [1]: 4 nM | EC50 [2]: 0.7 nM | EC50 [3]: 0.009 nM

COC(=O)N[C@H](C(=O)N1CCC[C@H]1c1ncc(-c2ccc3c(c2)cc2n3C3(CCCC3)Oc3cc(-c4cnc([C@@H]5C[C@@H](F)CN5C(=O)[C@@H](NC(=O)OC)C(C)C)[nH]4)cc(F)c3-2)[nH]1)C(C)C
EC50 [1]: 59 nM | EC50 [4]: 0.002 nM | EC50 [2]: 3 nM | EC50 [5]: 0.04 nM | EC50 [6]: 0.004 nM | EC50 [3]: 0.005 nM

COC(=O)N[C@H](C(=O)N1CCC[C@H]1c1ncc(-c2cc(F)c3c(c2)OC([C@H]2C[C@@H]2c2ccccc2)n2c-3cc3cc(-c4cnc([C@@H]5CCCN5C(=O)[C@@H](NC(=O)OC)C(C)C)[nH]4)ccc32)[nH]1)C(C)C (stereo partly drawn)
EC50 [1]: 4 nM | EC50 [2]: 0.03 nM | EC50 [3]: 0.005 nM

COC(=O)N[C@H](C(=O)N1CCC[C@H]1c1ncc(-c2ccc3c(c2)cc2n3C3(CCCCC3)Oc3cc(-c4cnc([C@@H]5C[C@@H](F)CN5C(=O)[C@@H](NC(=O)OC)C(C)C)[nH]4)cc(F)c3-2)[nH]1)C(C)C
EC50 [1]: 95 nM | EC50 [4]: 0.001 nM | EC50 [2]: 6 nM | EC50 [5]: 0.2 nM | EC50 [6]: 0.2 nM | EC50 [3]: 0.008 nM

COC(=O)N[C@H](C(=O)N1CCC[C@H]1c1ncc(-c2ccc3c(c2)OC(C2CCCCC2)n2c-3cc3cc(-c4cnc([C@@H]5CCCN5C(=O)[C@@H](NC(=O)OC)C(C)C)[nH]4)ccc32)[nH]1)C(C)C (stereo partly drawn)
EC50 [1]: 1 nM | EC50 [4]: 0.002 nM | EC50 [2]: 0.8 nM | EC50 [5]: 0.04 nM | EC50 [6]: 0.003 nM | EC50 [3]: 0.005 nM

COC(=O)N[C@H](C(=O)N1CCC[C@H]1c1ncc(-c2cc(F)c3c(c2)OC(C2CC2(C)C)n2c-3cc3cc(-c4cnc([C@@H]5CCCN5C(=O)[C@@H](NC(=O)OC)C(C)C)[nH]4)ccc32)[nH]1)C(C)C (stereo partly drawn)
EC50 [3]: 0.03 nM

CCCCC1Oc2cc(-c3cnc([C@@H]4CCCN4C(=O)[C@@H](NC(=O)OC)C(C)C)[nH]3)ccc2-c2cc3cc(-c4cnc([C@@H]5CCCN5C(=O)[C@@H](NC(=O)OC)C(C)C)[nH]4)ccc3n21 (stereo partly drawn)
EC50 [1]: 4 nM | EC50 [4]: 0.002 nM | EC50 [2]: 0.2 nM | EC50 [5]: 0.005 nM | EC50 [6]: 0.007 nM | EC50 [3]: 0.002 nM

COC(=O)N[C@H](C(=O)N1CCC[C@H]1c1ncc(-c2ccc3c(c2)OC(CC(F)(F)F)n2c-3cc3cc(-c4cnc([C@@H]5CCCN5C(=O)[C@@H](NC(=O)OC)C(C)C)[nH]4)ccc32)[nH]1)C(C)C (mixture of isomers)
EC50 [1]: 5 nM | EC50 [4]: 0.002 nM | EC50 [2]: 0.3 nM | EC50 [5]: 0.02 nM | EC50 [6]: 0.02 nM | EC50 [3]: 0.006 nM

COC(=O)N[C@H](C(=O)N1CCC[C@H]1c1ncc(-c2ccc3c(c2)OC(CCC#N)n2c-3cc3cc(-c4cnc([C@@H]5CCCN5C(=O)[C@@H](NC(=O)OC)C(C)C)[nH]4)ccc32)[nH]1)C(C)C (mixture of isomers)
EC50 [1]: 8 nM | EC50 [2]: 1 nM | EC50 [3]: 0.03 nM

COC(=O)N[C@H](C(=O)N1CCC[C@H]1c1ncc(-c2ccc3c(c2)OC(CCC(=O)O)n2c-3cc3cc(-c4cnc([C@@H]5CCCN5C(=O)[C@@H](NC(=O)OC)C(C)C)[nH]4)ccc32)[nH]1)C(C)C (mixture of isomers)
EC50 [1]: 124 nM | EC50 [2]: 33 nM | EC50 [3]: 8 nM

CCCCCC1CC2CCC1CC2C1Oc2cc(-c3cnc([C@@H]4CCCN4C(=O)[C@@H](NC(=O)OC)C(C)C)[nH]3)ccc2-c2cc3cc(-c4cnc([C@@H]5CCCN5C(=O)[C@@H](NC(=O)OC)C(C)C)[nH]4)ccc3n21 (mixture of isomers)
EC50 [1]: 2 nM | EC50 [2]: > 17 nM | EC50 [3]: 0.02 nM

COC(=O)N[C@H](C(=O)N1CCC[C@H]1c1ncc(-c2ccc3c(c2)OC(CC2CCCC2)n2c-3cc3cc(-c4cnc([C@@H]5CCCN5C(=O)[C@@H](NC(=O)OC)C(C)C)[nH]4)ccc32)[nH]1)C(C)C (mixture of isomers)
EC50 [6]: 4 nM

COC(=O)N[C@H](C(=O)N1CCC[C@H]1c1ncc(-c2ccc3c(c2)OC(CC2CCCCC2)n2c-3cc3cc(-c4cnc([C@@H]5CCCN5C(=O)[C@@H](NC(=O)OC)C(C)C)[nH]4)ccc32)[nH]1)C(C)C (mixture of isomers)
EC50 [4]: 0.002 nM | EC50 [2]: 3 nM | EC50 [5]: 0.04 nM | EC50 [6]: 0.09 nM | EC50 [3]: 0.006 nM

COC(=O)N[C@H](C(=O)N1CCC[C@H]1c1ncc(-c2ccc3c(c2)OC(CC2CC2)n2c-3cc3cc(-c4cnc([C@@H]5CCCN5C(=O)[C@@H](NC(=O)OC)C(C)C)[nH]4)ccc32)[nH]1)C(C)C (mixture of isomers)
EC50 [1]: 9 nM | EC50 [4]: 0.01 nM | EC50 [3]: 0.01 nM

COC(=O)CCC1Oc2cc(-c3cnc([C@@H]4CCCN4C(=O)[C@@H](NC(=O)OC)C(C)C)[nH]3)ccc2-c2cc3cc(-c4cnc([C@@H]5CCCN5C(=O)[C@@H](NC(=O)OC)C(C)C)[nH]4)ccc3n21 (mixture of isomers)
EC50 [1]: 9 nM | EC50 [2]: 4 nM | EC50 [3]: 0.02 nM

COC(=O)N[C@H](C(=O)N1CCC[C@H]1c1ncc(-c2ccc3c(c2)OC(C2CCOCC2)n2c-3cc3cc(-c4cnc([C@@H]5CCCN5C(=O)[C@@H](NC(=O)OC)C(C)C)[nH]4)ccc32)[nH]1)C(C)C (mixture of isomers)
EC50 [4]: 0.004 nM | EC50 [2]: 0.8 nM | EC50 [5]: 0.04 nM | EC50 [6]: 0.03 nM | EC50 [3]: 0.009 nM
